Measured values taken from patent US20240182561A1, “CALCIUM VOLTAGE-GATED CHANNEL AUXILIARY SUBUNIT GAMMA 1 (CACNG1) BINDING PROTEINS AND CACNG1-MEDIATED DELIVERY TO SKELETAL MUSCLE” (Regeneron Pharmaceuticals, Inc., priority 2022, published 2024).

Legend:
HEK293 = test: Indirect (secondary) cell killing assay; type: cell-based, human; conditions: Table 11-3; maximum % kill
Text: To test the ability of anti-CACNG1 antibodies described herein to bind, internalize, and deliver payloads, cell binding and indirect cell killing assays were developed with primary human skeletal myoblasts (Cook Myosite Cat #SkMDC SK-1111), C2C12 mouse myoblasts (ATCC Cat #CRL-1772), and HEK293 cells engineered to express human and mouse CACNG1 (HEK293/hCACNG1 and HEK293/mCACNG1, respectively). To generate the HEK293/hCACNG1 and HEK293/mCACNG1 cell lines, FuGEGE 6 (Promega, Cat #E2691/5/3) was used to transfect HEK293HZ cells with a human CACNG1 (hCACNG1; amino acid M1-H222, Accession #NP_000718.1) or mouse CACNG1 (mCACNG1; amino acid M1-H223, Accession #NP_031608.1) expression vector. HEK293HZ is a highly transfectable subclone of HEK293 cells (1) authenticated via STIR (short tandem repeat) profiling to be 81% identical to HEK293 cells sourced from ATCC). […]
(§1) An indirect cell killing assay was used to assess the ability of anti-CACNG1 antibodies to internalize and deliver payloads into cells. In vitro cytotoxicity of the anti-CACNG1 antibodies alone or in combination with Fab anti-human Fc or Fab anti-mouse Fc secondary antibodies conjugated to Duocarmycin DM (Moradec, Cat #AH-202-DD-50 or Cat #AM-202-DD-50) were evaluated using the CellTiter-Glo 2.0 Assay Kit (Promega, Cat #G9243), in which the quantity of ATP present is used to determine the number of viable cells in culture. […]

HEK293/hCACNG1 = target: T1, HEK293/hCACNG1 (Homo sapiens, UniProt Q06432); test: Indirect (secondary) cell killing assay; type: cell-based; conditions: Table 11-3; maximum % kill = 100 - minimum percent viability
T1 construct: human CACNG1 (hCACNG1); expressed in transfected cells
T1 sequence (Q06432 whole entry): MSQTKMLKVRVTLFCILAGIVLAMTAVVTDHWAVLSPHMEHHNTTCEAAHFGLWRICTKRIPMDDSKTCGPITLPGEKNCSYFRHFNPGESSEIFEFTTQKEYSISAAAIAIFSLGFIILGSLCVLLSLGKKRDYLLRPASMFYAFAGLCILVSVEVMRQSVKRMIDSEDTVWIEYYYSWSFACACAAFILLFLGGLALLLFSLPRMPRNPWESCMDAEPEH
Text: (§2) To test the ability of anti-CACNG1 antibodies described herein to bind, internalize, and deliver payloads, cell binding and indirect cell killing assays were developed with primary human skeletal myoblasts (Cook Myosite Cat #SkMDC SK-1111), C2C12 mouse myoblasts (ATCC Cat #CRL-1772), and HEK293 cells engineered to express human and mouse CACNG1 (HEK293/hCACNG1 and HEK293/mCACNG1, respectively). To generate the HEK293/hCACNG1 and HEK293/mCACNG1 cell lines, FuGEGE 6 (Promega, Cat #E2691/5/3) was used to transfect HEK293HZ cells with a human CACNG1 (hCACNG1; amino acid M1-H222, Accession #NP_000718.1) or mouse CACNG1 (mCACNG1; amino acid M1-H223, Accession #NP_031608.1) expression vector. HEK293HZ is a highly transfectable subclone of HEK293 cells (1) authenticated via STIR (short tandem repeat) profiling to be 81% identical to HEK293 cells sourced from ATCC). The HEK293HZ cell line was maintained in DMEM+10% FBS+1% L-glutamine/penicillin/streptomycin, while HEK293/hCACNG1 and HEK293/mCACNG1 cell lines were maintained in DMEM+10% FBS+1% L-glutamine/penicillin/streptomycin+500 ug/mL G418. Human skeletal myoblasts (HuSKM) were maintained in MyoTonic Basal Media (Cook Myosite Cat #MB-2222) supplemented with MyoTonic Growth Supplement (Cook Myosite Cat #MS-3333) and grown in a 37° C. incubator with 5% CO2. HuSKM were seeded in collagen-coated 96-well plates (Greiner Bio-One #655956) at 8,500 cells/well and grown for 24 hours. The growth media was changed to MyoTonic Differentiation Media (Cook Myosite Cat #MD-5555) and replaced every 2 days. Myotubes were assayed after 6 days of differentiation. C2C12 mouse myoblasts were maintained in DMEM with 10% FBS and 1% penicillin-streptomycin supplement and grown in a 37° C. incubator with 5% CO2. C2C12 cells were seeded in collagen-coated 96-well plates (Greiner Bio-One #655956) at 10,000 cells/well for the cell binding assay and 5,000 cells/well for the cell killing assay. After 24 hours, growth media was replaced with differentiation media (DMEM with 2% horse serum) and placed in a 37° C. incubator with 7.5% CO2. C2C12 myotubes were assayed after 3 days of differentiation. […]
as §1

HEK293/mCACNG1 = target: T2, HEK293/mCACNG1 (Mus musculus, UniProt O70578); test: Indirect (secondary) cell killing assay; type: cell-based; conditions: Table 11-3; maximum % kill
T2 construct: mouse CACNG1 (mCACNG1); expressed in transfected cells
T2 sequence (O70578 1-223): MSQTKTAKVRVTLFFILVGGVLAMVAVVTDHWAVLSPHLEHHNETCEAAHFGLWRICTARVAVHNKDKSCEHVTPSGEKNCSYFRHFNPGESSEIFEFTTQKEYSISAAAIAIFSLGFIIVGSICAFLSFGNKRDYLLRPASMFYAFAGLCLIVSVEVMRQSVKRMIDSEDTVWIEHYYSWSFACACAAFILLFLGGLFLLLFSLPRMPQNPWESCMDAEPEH
Text: as §2, §1

mouse myotubes (C2C12) = test: Indirect (secondary) cell killing assay; type: cell-based; conditions: Table 11-3; maximum % kill
Text: as §2, §1

[1] = system: primary human skeletal myotubes (HuSKM); test: Indirect (secondary) cell killing assay; type: cell-based; conditions: Table 11-3; maximum % kill
Text: as §2, §1

Dmpk = test: In vivo siRNA durability of Dmpk knockdown; design: species or system mouse; conditions: 1 week post treatment, 3 and 5 mg/kg siRNA; FIGS. 13A-13E
Procedure: All doses were adjusted for drug-to-antibody (DAR) ratio, i.e., mice were dosed based on siRNA amount for body weight, as determined by liquid chromatography electrospray ionization approaches described herein. […] Mice were sacrificed at either 1 week, 3 weeks, or 6 weeks post dosing. […] The following tissues were placed into RNAlater (ThermoFisher Catalog #AM7021): gastrocnemius, soleus, quadricep, tibialis anterior, diaphragm, heart, liver, spleen, kidney. Tissues were allowed to sit in RNAlater for at least 2 hours at room temperature before being transferred to −20° C. Total RNA was purified using MagMAX™-96 for Microarrays Total RNA Isolation Kit Catalog #AM1839 (Ambion by Life Technologies) according to manufacturer's specifications. […] Samples were then reverse transcribed using SuperScript VILO MasterMix (Invitrogen Catalog #11755-250) according to manufacturer's specifications. For TaqMan gene expression analysis, TaqMan Gene Expression MasterMix (ThermoFisher Scientific Ref #4369016) was used according to manufacturer's specifications. The probes used in the assay were as followed: Dmpk FAM (ThermoFisher Mm00446261_m1) and Rplp0 (ThermoFisher Mm01974474_gH).

Molecule | % KILL (HEK293) [%] | % KILL (HEK293/hCACNG1) [%] | % KILL (HEK293/mCACNG1) [%] | % KILL (mouse myotubes (C2C12)) [%] | % KILL [1] [%] | Dmpk knockdown in skeletal muscle (Dmpk)
COC(=O)c1cc2c([nH]1)C(=O)C=C1N(C(=O)c3cc4cc(OC)c(OC)c(OC)c4[nH]3)C[C@H]3C[C@]123 [Duocarmycin] | 99.6 | 99.7 | 99.8 | 99.6 | 97.3 | –
naked siRNA: siRNA against DMPK (siRNA1), SEQ ID NO: 416 sense and 417 antisense, used unconjugated as control (sense CCUCGGUAUUUAUUGUCUA; antisense UAGACAAUAAAUACCGAGG; listed as RNA, further chemistry not given here) | – | – | – | – | – | no noticeable knockdown
